Reference: US9340590B2 (priority 2011, dated 2016)
pIC50: −log10 of the molar value. Read-outs that look alike come from different tables or passages of the source. Positions of bridges follow the written chain, without caps; N, C: chain ends. Non-standard residues stand in square brackets, D forms with d. Residues, ends and D or L forms follow the SMILES beside them. *: point of attachment. 1Nal = N[C@@H](Cc1cccc2ccccc12)C(=O)O; Pent4ynoyl = C#CCCC(=O)*; Nva = CCC[C@H](N)C(=O)O

What was measured:
Test in all cases: cell-based
[1] = biological target: hNav1.3 (Homo sapiens, UniProt Q9NY46); conditions: IonWorks Quattro, read-out: IWQ Use Nav1.3
[2] = biological target: hNav1.7 (Homo sapiens, UniProt Q15858); format: cell-based; conditions: IonWorks Quattro, read-out: IWQ Use Nav1.7
[3] = biological target: hNav1.5 (Homo sapiens, UniProt Q14524); conditions: IonWorks Quattro, read-out: IWQ Use Nav1.5
[4] = clamped to −110 mV, depolarized to −10 mV, 5 min after compound, n=2

Sequence of hNav1.7 (Q15858 whole entry, looked up): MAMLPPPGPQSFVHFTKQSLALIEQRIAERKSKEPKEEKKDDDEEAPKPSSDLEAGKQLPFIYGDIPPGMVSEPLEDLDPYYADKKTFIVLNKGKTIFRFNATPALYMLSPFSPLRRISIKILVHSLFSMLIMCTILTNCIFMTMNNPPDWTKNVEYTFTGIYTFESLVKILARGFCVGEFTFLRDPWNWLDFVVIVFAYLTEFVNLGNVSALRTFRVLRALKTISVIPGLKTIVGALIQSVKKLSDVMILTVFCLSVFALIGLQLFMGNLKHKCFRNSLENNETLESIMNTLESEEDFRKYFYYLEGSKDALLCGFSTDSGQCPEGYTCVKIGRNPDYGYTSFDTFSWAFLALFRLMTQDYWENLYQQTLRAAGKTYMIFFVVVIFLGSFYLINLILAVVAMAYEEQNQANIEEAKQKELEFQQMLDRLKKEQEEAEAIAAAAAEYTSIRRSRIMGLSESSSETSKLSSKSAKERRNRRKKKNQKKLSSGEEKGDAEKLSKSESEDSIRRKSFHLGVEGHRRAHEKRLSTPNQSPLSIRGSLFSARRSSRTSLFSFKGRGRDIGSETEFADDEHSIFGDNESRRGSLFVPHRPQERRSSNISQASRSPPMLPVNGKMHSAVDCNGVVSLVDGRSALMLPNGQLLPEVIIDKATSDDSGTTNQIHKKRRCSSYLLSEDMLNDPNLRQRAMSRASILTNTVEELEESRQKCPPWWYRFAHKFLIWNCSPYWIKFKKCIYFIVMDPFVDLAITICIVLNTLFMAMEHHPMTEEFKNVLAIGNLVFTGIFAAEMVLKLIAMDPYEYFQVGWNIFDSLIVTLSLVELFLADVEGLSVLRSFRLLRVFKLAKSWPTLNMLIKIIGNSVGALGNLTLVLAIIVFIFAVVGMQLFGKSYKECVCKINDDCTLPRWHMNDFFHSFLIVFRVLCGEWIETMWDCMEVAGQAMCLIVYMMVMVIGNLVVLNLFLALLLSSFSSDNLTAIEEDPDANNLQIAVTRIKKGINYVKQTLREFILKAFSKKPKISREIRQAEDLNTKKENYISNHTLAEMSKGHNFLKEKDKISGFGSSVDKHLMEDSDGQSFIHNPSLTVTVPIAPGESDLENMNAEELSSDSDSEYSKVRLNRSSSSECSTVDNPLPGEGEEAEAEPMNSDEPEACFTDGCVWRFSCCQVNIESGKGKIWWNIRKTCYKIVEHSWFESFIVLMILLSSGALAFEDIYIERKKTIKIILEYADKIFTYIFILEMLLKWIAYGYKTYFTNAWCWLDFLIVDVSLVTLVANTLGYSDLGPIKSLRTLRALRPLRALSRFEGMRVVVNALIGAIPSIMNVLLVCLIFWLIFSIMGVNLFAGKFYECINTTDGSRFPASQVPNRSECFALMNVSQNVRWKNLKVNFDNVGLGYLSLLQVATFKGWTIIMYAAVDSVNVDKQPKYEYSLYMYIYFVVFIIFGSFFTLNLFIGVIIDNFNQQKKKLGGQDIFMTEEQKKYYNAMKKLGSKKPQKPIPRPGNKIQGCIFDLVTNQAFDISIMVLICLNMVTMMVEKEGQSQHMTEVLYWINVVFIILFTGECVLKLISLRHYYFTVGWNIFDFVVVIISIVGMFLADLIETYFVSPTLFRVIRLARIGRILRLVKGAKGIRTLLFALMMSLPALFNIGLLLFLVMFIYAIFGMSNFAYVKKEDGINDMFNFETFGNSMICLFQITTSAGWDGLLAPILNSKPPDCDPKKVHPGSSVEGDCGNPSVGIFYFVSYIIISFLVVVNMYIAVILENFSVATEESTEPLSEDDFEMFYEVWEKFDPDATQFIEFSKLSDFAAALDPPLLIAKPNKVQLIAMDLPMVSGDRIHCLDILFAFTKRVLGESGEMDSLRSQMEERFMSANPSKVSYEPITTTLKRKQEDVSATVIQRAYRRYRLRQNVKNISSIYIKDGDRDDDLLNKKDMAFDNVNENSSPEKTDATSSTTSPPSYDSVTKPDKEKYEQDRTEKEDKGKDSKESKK
Sequence of hNav1.5 (Q14524 whole entry, looked up): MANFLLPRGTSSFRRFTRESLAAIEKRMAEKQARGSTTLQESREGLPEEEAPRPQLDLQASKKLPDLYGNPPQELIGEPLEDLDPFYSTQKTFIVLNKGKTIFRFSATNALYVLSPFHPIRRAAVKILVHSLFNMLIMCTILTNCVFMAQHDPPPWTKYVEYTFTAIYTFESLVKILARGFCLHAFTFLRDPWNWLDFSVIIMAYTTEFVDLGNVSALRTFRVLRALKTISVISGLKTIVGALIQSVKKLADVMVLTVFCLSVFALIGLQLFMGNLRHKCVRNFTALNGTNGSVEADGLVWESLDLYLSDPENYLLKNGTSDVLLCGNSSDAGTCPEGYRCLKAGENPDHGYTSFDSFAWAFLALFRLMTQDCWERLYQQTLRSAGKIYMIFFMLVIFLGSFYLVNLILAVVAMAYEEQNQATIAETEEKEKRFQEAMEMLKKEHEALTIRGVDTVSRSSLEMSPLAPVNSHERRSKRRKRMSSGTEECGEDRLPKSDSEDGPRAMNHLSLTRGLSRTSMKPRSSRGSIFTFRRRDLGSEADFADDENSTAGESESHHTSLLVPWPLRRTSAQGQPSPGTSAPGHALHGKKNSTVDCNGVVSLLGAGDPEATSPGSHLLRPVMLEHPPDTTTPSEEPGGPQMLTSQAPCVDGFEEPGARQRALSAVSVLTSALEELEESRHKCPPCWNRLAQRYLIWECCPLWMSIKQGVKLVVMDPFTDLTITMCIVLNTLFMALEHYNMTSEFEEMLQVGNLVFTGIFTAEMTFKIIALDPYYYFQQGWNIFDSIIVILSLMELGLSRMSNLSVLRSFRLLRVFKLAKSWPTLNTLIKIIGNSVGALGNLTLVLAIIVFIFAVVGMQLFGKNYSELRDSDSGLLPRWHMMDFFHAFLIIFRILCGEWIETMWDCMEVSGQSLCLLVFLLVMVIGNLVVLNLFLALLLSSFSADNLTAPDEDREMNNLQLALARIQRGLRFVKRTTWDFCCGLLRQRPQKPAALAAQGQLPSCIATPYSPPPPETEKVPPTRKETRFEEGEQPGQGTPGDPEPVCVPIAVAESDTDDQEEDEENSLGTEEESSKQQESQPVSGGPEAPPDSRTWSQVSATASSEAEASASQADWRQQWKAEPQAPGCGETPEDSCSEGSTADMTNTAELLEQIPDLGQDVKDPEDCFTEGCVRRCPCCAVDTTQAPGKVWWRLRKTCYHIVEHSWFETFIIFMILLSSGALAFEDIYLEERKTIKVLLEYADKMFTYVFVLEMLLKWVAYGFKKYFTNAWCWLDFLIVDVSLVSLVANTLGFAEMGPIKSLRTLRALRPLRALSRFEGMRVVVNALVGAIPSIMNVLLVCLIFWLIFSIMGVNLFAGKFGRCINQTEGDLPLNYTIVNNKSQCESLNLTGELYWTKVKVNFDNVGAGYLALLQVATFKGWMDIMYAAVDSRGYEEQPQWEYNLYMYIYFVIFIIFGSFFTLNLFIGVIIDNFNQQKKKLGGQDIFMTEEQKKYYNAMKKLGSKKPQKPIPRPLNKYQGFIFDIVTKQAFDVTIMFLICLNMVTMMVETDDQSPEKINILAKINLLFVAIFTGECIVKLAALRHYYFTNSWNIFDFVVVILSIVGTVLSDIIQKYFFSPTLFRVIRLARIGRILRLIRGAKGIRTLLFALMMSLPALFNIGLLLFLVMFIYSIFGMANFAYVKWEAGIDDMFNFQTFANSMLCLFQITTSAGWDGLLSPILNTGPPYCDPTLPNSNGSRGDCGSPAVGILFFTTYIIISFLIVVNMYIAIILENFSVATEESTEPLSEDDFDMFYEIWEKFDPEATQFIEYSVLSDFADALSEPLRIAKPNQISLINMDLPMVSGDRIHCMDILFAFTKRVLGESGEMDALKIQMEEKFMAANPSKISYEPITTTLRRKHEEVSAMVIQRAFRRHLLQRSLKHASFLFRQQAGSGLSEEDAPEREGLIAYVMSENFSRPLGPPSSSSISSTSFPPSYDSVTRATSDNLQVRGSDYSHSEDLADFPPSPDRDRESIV

CC[C@H](C)[C@@H]1NC(=O)[C@@H]2CSSC[C@@H]3NC(=O)[C@H](CC(=O)O)NC(=O)[C@H](CC(C)C)NC(=O)[C@H](CC(N)=O)NC(=O)[C@@H]4CCCN4C(=O)[C@H](CCCNC(=N)N)NC(=O)[C@H](CSSC[C@H](NC(=O)[C@@H](N)CC(=O)O)C(=O)N[C@@H](CC(C)C)C(=O)NCC(=O)N[C@@H](Cc4ccccc4)C(=O)N[C@@H](CCSC)C(=O)N[C@@H](CCCNC(=N)N)C(=O)N[C@@H](CCCCN)C(=O)N2)NC(=O)[C@H](CSSC[C@@H](C(=O)N[C@@H](CCCCN)C(=O)N[C@@H](Cc2ccc(O)cc2)C(=O)N[C@H](C(=O)N[C@@H](Cc2ccccc2)C(N)=O)C(C)C)NC(=O)[C@H](Cc2c[nH]c4ccccc24)NC(=O)[C@H](CCCCN)NC(=O)[C@H](Cc2c[nH]cn2)NC(=O)[C@H]([C@@H](C)O)NC(=O)[C@H](CCCNC(=N)N)NC(=O)[C@H](CO)NC3=O)NC(=O)[C@H](CCCCN)NC(=O)[C@H](CC(=O)O)NC(=O)[C@H](CC(N)=O)NC(=O)[C@H](CC(=O)O)NC(=O)[C@@H]2CCCN2C1=O [compound 327] (H-DCLGFMRKCIPDNDKCCRPNLDCSRTHKWCKYVF-NH2; disulfide 2-17, 9-23, 16-30)
pIC50 ([1]; Use): 6.20
pIC50 ([2]; Use): 5.82
pIC50 ([3]; Use): 4.88

CC[C@H](C)[C@@H]1NC(=O)[C@@H]2CSSC[C@@H]3NC(=O)[C@H](C(C)C)NC(=O)[C@H](CC(C)C)NC(=O)[C@H](CC(N)=O)NC(=O)[C@@H]4CCCN4C(=O)[C@H](CCCNC(=N)N)NC(=O)[C@H](CSSC[C@H](NC(=O)[C@@H](N)CC(=O)O)C(=O)N[C@@H](CC(C)C)C(=O)NCC(=O)N[C@@H](C)C(=O)N[C@@H](CCSC)C(=O)N[C@@H](CCCNC(=N)N)C(=O)N[C@@H](CCCCN)C(=O)N2)NC(=O)[C@H](CSSC[C@@H](C(=O)N[C@@H](CCCCN)C(=O)N[C@@H](Cc2ccc(O)cc2)C(=O)N[C@H](C(=O)N[C@@H](Cc2ccccc2)C(N)=O)C(C)C)NC(=O)[C@H](Cc2c[nH]c4ccccc24)NC(=O)[C@H](CCCCNC(C)=O)NC(=O)[C@H](Cc2c[nH]cn2)NC(=O)[C@H]([C@@H](C)O)NC(=O)[C@H](CCCNC(=N)N)NC(=O)[C@H](CO)NC3=O)NC(=O)[C@H](CCCCN)NC(=O)[C@H](CC(=O)O)NC(=O)[C@H](CC(N)=O)NC(=O)[C@H](CC(=O)O)NC(=O)[C@@H]2CCCN2C1=O [compound 742] (H-DCLGAMRKCIPDNDKCCRPNLVCSRTHK(Ac)WCKYVF-NH2; disulfide 2-17, 9-23, 16-30)
pIC50 ([1]; use-dependent block, hNav1.3): 5.60
pIC50 ([2]; use-dependent block, hNav1.7): 5.96
pIC50 ([3]; use-dependent block, hNav1.5): 4.64

C#CCCC(=O)NCCCC[C@@H]1NC(=O)[C@H](CC(=O)O)NC(=O)[C@@H]2CCCN2C(=O)[C@H]([C@@H](C)CC)NC(=O)[C@@H]2CSSC[C@@H]3NC(=O)[C@H](C(C)C)NC(=O)[C@H](CC(C)C)NC(=O)[C@H](CC(N)=O)NC(=O)[C@@H]4CCCN4C(=O)[C@H](CCCNC(=N)N)NC(=O)[C@H](CSSC[C@H](NC(=O)[C@@H](N)CC(=O)O)C(=O)N[C@@H](CC(C)C)C(=O)NCC(=O)N[C@@H](CCC)C(=O)N[C@@H](CC(C)C)C(=O)N[C@@H](CCCNC(=N)N)C(=O)N[C@@H](CCCCN)C(=O)N2)NC(=O)[C@H](CSSC[C@@H](C(=O)N[C@@H](CCCCN)C(=O)N[C@@H](Cc2ccc(O)cc2)C(=O)N[C@H](C(=O)N[C@@H](Cc2ccccc2)C(N)=O)C(C)C)NC(=O)[C@H](Cc2c[nH]c4ccccc24)NC(=O)[C@H](CCCNC(=N)N)NC(=O)[C@H](Cc2c[nH]cn2)NC(=O)[C@H]([C@@H](C)O)NC(=O)[C@H](CCCNC(=N)N)NC(=O)[C@H](CO)NC3=O)NC(=O)[C@H](CCCCN)NC(=O)[C@H](CC(=O)O)NC1=O [compound 805] (H-DCLG[Nva]LRKCIPDK(Pent4ynoyl)DKCCRPNLVCSRTHRWCKYVF-NH2; disulfide 2-17, 9-23, 16-30)
pIC50 ([1]; use-dependent block, hNav1.3): 6.57
pIC50 ([2]; use-dependent block, hNav1.7): 6.51
pIC50 ([3]; use-dependent block, hNav1.5): 4.43

CC[C@H](C)[C@@H]1NC(=O)[C@@H]2CSSC[C@@H]3NC(=O)[C@H](C(C)C)NC(=O)[C@H](CC(C)C)NC(=O)[C@H](CC(N)=O)NC(=O)[C@@H]4CCCN4C(=O)[C@H](CCCNC(=N)N)NC(=O)[C@H](CSSC[C@H](NC(=O)[C@@H](N)CC(=O)O)C(=O)N[C@@H](CC(C)C)C(=O)NCC(=O)N[C@@H](Cc4ccccc4)C(=O)N[C@@H](CC[Se]C)C(=O)N[C@@H](CCCNC(=N)N)C(=O)N[C@@H](CCCCN)C(=O)N2)NC(=O)[C@H](CSSC[C@@H](C(=O)N[C@@H](CCCCN)C(=O)N[C@@H](Cc2ccc(O)cc2)C(=O)N[C@H](C(=O)N[C@@H](Cc2ccccc2)C(N)=O)C(C)C)NC(=O)[C@H](Cc2c[nH]c4ccccc24)NC(=O)[C@H](CCCCN)NC(=O)[C@H](Cc2c[nH]cn2)NC(=O)[C@H]([C@@H](C)O)NC(=O)[C@H](CCCNC(=N)N)NC(=O)[C@H](CO)NC3=O)NC(=O)[C@H](CCCCN)NC(=O)[C@H](CC(=O)O)NC(=O)[C@H](CC(N)=O)NC(=O)[C@H](CC(=O)O)NC(=O)[C@@H]2CCCN2C1=O [SEQ ID NO: 3]
pIC50 [1, 4]: 7.00
pIC50 [2, 4]: 7.00
pIC50 [3, 4]: 4.86

CC[C@H](C)[C@@H]1NC(=O)[C@@H]2CSSC[C@@H]3NC(=O)[C@H](C(C)C)NC(=O)[C@H](CC(C)C)NC(=O)[C@H](CC(N)=O)NC(=O)[C@@H]4CCCN4C(=O)[C@H](CCCNC(=N)N)NC(=O)[C@H](CSSC[C@H](NC(=O)[C@@H](N)CC(=O)O)C(=O)N[C@@H](CC(C)C)C(=O)NCC(=O)N[C@@H](Cc4ccccc4)C(=O)N[C@@H](CCSC)C(=O)N[C@@H](CCCNC(=N)N)C(=O)N[C@@H](CCCCN)C(=O)N2)NC(=O)[C@H](CSSC[C@@H](C(=O)N[C@@H](CCCCN)C(=O)N[C@@H](Cc2ccc(O)cc2)C(=O)N[C@@H](Cc2ccccc2)C(=O)N[C@@H](Cc2ccccc2)C(N)=O)NC(=O)[C@H](Cc2c[nH]c4ccccc24)NC(=O)[C@H](CCCCN)NC(=O)[C@H](Cc2c[nH]cn2)NC(=O)[C@H]([C@@H](C)O)NC(=O)[C@H](CCCNC(=N)N)NC(=O)[C@H](CO)NC3=O)NC(=O)[C@H](CCCCN)NC(=O)[C@H](CC(=O)O)NC(=O)[C@H](CC(N)=O)NC(=O)[C@H](CC(=O)O)NC(=O)[C@@H]2CCCN2C1=O [compound 390] (H-DCLGFMRKCIPDNDKCCRPNLVCSRTHKWCKYFF-NH2; disulfide 2-17, 9-23, 16-30)
pIC50 ([1]; Table 26, use, […]): 7.40
pIC50 ([2]; Table 26, use, […]): 7.22
pIC50 ([3]; Table 26, use, […]): 5.06

CC[C@@H]1NC(=O)CNC(=O)[C@H](CC(C)C)NC(=O)[C@@H](NC(=O)[C@@H](N)CC(=O)O)CSSC[C@@H]2NC(=O)[C@@H]3CSSC[C@@H](C(=O)N[C@@H](CCCCN)C(=O)N[C@@H](Cc4ccc(O)cc4)C(=O)N[C@H](C(=O)N[C@@H](Cc4ccccc4)C(N)=O)C(C)C)NC(=O)[C@H](Cc4c[nH]c5ccccc45)NC(=O)[C@H](CCCCN)NC(=O)[C@H](Cc4c[nH]cn4)NC(=O)[C@H]([C@@H](C)O)NC(=O)[C@H](CCCNC(=N)N)NC(=O)[C@H](CO)NC(=O)[C@H](CSSC[C@H](NC(=O)[C@H](CCCCN)NC(=O)[C@H](CCCNC(=N)N)NC(=O)[C@H](CC(C)C)NC1=O)C(=O)N[C@@H]([C@@H](C)CC)C(=O)N1CCC[C@H]1C(=O)N[C@@H](CC(=O)O)C(=O)N[C@@H](CC(N)=O)C(=O)N[C@@H](CC(=O)O)C(=O)N[C@@H](CCCCN)C(=O)N3)NC(=O)[C@H](C(C)C)NC(=O)[C@H](CC(C)C)NC(=O)[C@H](CC(N)=O)NC(=O)[C@@H]1CCCN1C(=O)[C@H](CCCNC(=N)N)NC2=O [compound 636]
pIC50 ([1]; use-dependent protocol, hNav1.3): 6.00
pIC50 ([2]; use-dependent protocol, hNav1.7): 6.54
pIC50 ([3]; use-dependent protocol, hNav1.5): 4.78

CC[C@H](C)[C@@H]1NC(=O)[C@@H]2CSSC[C@@H]3NC(=O)[C@H](C(C)C)NC(=O)[C@H](CC(C)C)NC(=O)[C@H](CC(N)=O)NC(=O)[C@@H]4CCCN4C(=O)[C@H](CCCNC(=N)N)NC(=O)[C@H](CSSC[C@H](NC(=O)[C@@H](N)CC(=O)O)C(=O)N[C@@H](CC(C)C)C(=O)NCC(=O)N[C@@H](Cc4ccccc4)C(=O)N[C@@H](CCSC)C(=O)N[C@@H](CCCNC(=N)N)C(=O)N[C@@H](CCCCN)C(=O)N2)NC(=O)[C@H](CSSC[C@@H](C(=O)N[C@@H](CCCCN)C(=O)N[C@@H](Cc2cccc4ccccc24)C(=O)N[C@@H](Cc2c[nH]c4ccccc24)C(=O)N[C@@H](Cc2ccccc2)C(N)=O)NC(=O)[C@H](Cc2c[nH]c4ccccc24)NC(=O)[C@H](CCCCN)NC(=O)[C@H](Cc2c[nH]cn2)NC(=O)[C@H]([C@@H](C)O)NC(=O)[C@H](CCCNC(=N)N)NC(=O)[C@H](CO)NC3=O)NC(=O)[C@H](CCCCN)NC(=O)[C@H](CC(=O)O)NC(=O)[C@H](CC(N)=O)NC(=O)[C@H](CC(=O)O)NC(=O)[C@@H]2CCCN2C1=O [compound 460] (H-DCLGFMRKCIPDNDKCCRPNLVCSRTHKWCK[1Nal]WF-NH2; disulfide 2-17, 9-23, 16-30)
pIC50 ([1]; use-dependent block, hNav1.3): 7.52
pIC50 ([2]; use-dependent block, hNav1.7): 7.10
pIC50 ([3]; use-dependent block, hNav1.5): < 5.30
